These results are taken from US6569888B1, “Anti-inflammatory indole derivatives” (AstraZeneca AB, priority 1999, dated 2003).

Where two headings read alike, the source gives them in different places.

Assay [1] has as its system THP-1 cells. The experiment in a line: hMCP-1 mediated chemotaxis. Type of assay: cell-based, human. How it is done: (§1) In vitro chemotaxis assays were performed using the human monocytic cell line THP-1. Cell migration through polycarbonate membranes was measured by enumerating those passing through either directly by Coulter counting or indirectly by use of a colourimetric viability assay measuring the cleavage of a tetrazolium salt by the mitochondrial respiratory chain (Scudiero D. A. et al. 1988, Cancer Res., 48, 4827-4833).
(§2) Chemoattractants were introduced into a 96-well microtitre plate which forms the lower well of a chemotaxis chamber fitted with a PVP-free 5 μm poresize polycarbonate adhesive framed filter membrane (NeuroProbe MB series, Cabin John, Md. 20818, USA) according to the manufacturer's instructions. […] The plate was incubated at 37° C. for 3 h and the absorbance of the soluble formazan product was read on a microtitre plate reader at 450 nm. The data was input into a spreadsheet, corrected for any random migration in the absence of chemoattractant and the average absorbance values, standard error of the mean, and significance tests were calculated. hMCP-1 induced concentration dependent cell migration with a characteristic biphasic response, maximal […]. […]

Another assay has as its target T1, MCP-1 receptor B (CCR2B) (Homo sapiens, UniProt P41597).
T1 construct: expressed in transfected cells; host or cells: CHO-K1 (clone 7, CHO-CCR2B), membrane fragments
T1 sequence (P41597 1-360 isoform P41597-2): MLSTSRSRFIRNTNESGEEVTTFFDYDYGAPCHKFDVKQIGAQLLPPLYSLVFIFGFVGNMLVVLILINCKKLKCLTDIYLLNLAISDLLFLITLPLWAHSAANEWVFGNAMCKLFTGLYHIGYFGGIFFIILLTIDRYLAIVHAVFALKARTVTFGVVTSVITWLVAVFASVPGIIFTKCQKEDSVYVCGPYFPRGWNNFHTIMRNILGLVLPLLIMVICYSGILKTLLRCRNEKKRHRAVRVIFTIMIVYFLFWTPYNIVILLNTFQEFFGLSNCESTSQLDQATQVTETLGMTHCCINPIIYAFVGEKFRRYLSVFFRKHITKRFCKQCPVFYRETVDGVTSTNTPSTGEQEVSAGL
The experiment in a line: hMCP-1 receptor binding assay (125I-MCP-1, CHO-CCR2B cell membranes). The text has this: The MCP-1 receptor B (CCR2B) cDNA was cloned by PCR from THP-1 cell RNA using suitable oligonucleotide primers based on the published MCP-1 receptor sequences (Charo et al., 1994, Proc. Natl. Acad. Sci. USA, 91, 2752). The resulting PCR products were cloned into vector PCR-II™ (In Vitrogen, San Diego, Calif.). Error free CCR2B cDNA was subcloned as a Hind III-Not I fragment into the eukaryotic expression vector pCDNA3 (In Vitrogen) to generate pCDNA3/CC-CKR2A and pCDNA3/CCR2B respectively.
Linearised pCDNA3/CCR2B DNA was transfected into CHO-K1 cells by calcium phosphate precipitation (Wigler el al., 1979, Cell, 16, 777). Transfected cells were selected by the addition of Geneticin Sulphate (G418, Gibco BRL) at 1 mg/ml, 24 hours after the cells had been transfected. Preparation of RNA and Northern blotting were carried out as described previously (Needham et al., 1995, Prot. Express. Purific., 6, 134). CHO-K1 clone 7 (CHO-CCR2B) was identified as the highest MCP-1 receptor B expresser. […]
^125I MCP-1 was prepared using Bolton and Hunter conjugation (Bolton et al. 1973, Biochem. J., 133, 529; Amersham International plc]. Equilibrium binding assays were carried out using, the method of Ernst et al., 1994, J. Immunol., 152, 3541. Briefly, varying amounts of ^125I-labeled MCP-1 were added to 7 μg of purified CHO-CCR2B cell membranes in 100 μl of Binding Buffer. After 1 hour incubation at room temperature the binding reaction mixtures were filtered and washed 5 times through a plate washer (Brandel MLR-96T Cell Harvester) using ice cold Binding Buffer. Filter mats (Brandel GF/B) were pre-soaked for 60 minutes in 0.3% polyethylenimine prior to use. Following filtration individual filters were separated into 3.5 ml tubes (Sarstedt No. 55.484) and bound ^125I-labeled MCP-1 was determined (LKB 1277 Gammamaster). […] Non-specific binding was determined by the inclusion of a 200-fold molar excess of unlabelled MCP-1 in the reaction. […]

The subject of assay [2] is THP-1 cells. The experiment in a line: MCP-1 mediated calcium flux in THP-1 cells. The following applies: stimulation of THP-1 cells with hMCP-1, FURA-2; read-out: EC50 of rise in [Ca2+]i. Type of assay: cell-based, human. How it is done: The human monocytic cell line THP-1 was grown in a synthetic cell culture medium RPMI 1640 supplemented with 10% foetal calf serum, 6 mM glutamine and Penicillin-Streptomycin (at 50 μg streptomycin/ml, Gibco BRL). THP-1 cells were washed in HBSS (lacking Ca^2+ and Mg^2+)+1 mg/ml BSA and resuspended in the same buffer at a density of 3×10^6 cells/ml. The cells were then loaded with […] FURA-2/AM for 30 min at 37° C., washed twice in HBSS, and resuspended at 1×10^6 cells/ml. THP-1 cell suspension (0.9 ml) was added to a 5 ml disposable cuvette containing a magnetic stirrer bar and 2.1 ml of prewarmed (37° C.) HBSS containing 1 mg/ml BSA. 1 mM MgCl2 and 2 mM CaCl2. The cuvette was placed in a fluorescence spectrophotometer (Perkin Elmer, Norwalk, Conn.) and preincubated for 4 min at 37° C. with stirring. Fluorescence was recorded over 70 sec and cells were stimulated by addition of hMCP-1 to the cuvette after 10 sec. [Ca^2+]i was measured by excitation at 340 nm and 380 nm alternately and subsequent measurement of the intensity of the fluorescence emission at 510 nm.
where the Kd for FURA-2 Ca^2+ complex at 37° C. was taken to be 224 nm. […]
(Calcium flux is commonly read through the fluorescence of an indicator in the cells.)

Assay [3] deals with THP-1 cells. Description: RANTES mediated chemotaxis. Type of assay: cell-based. Conditions: Homo sapiens, RANTES 2 nM, Calcein AM tagged cells. How it is done: as §1, §2

As usually defined, the IC50 is the concentration that gives 50% inhibition. In turn, `COc1ccc2c(cc(C(=O)O)n2Cc2ccc(Cl)c(Cl)c2)c1OCC(=O)O` [Compound 9, N-(3,4-Dichlorobenzyl)-5-methoxy-4-(carboxymethoxy)indole-2-carboxylic Acid] displayed an IC50 in the assay on THP-1 cells [1] (Homo sapiens, 1 nM MCP-1) of 12800 nM.

Usually Kd stands for a measure of binding affinity in units of concentration. Broadly, the EC50 is the concentration that produces a half-maximal response. Regarding “MCP-1: Human Monocyte Chemoattractant Protein-1, chemokine ligand of the CCR2 receptor”, the IC50 with MCP-1 receptor B (CCR2B) (cold competition, 100 pM 125I-labeled MCP-1, CHO-CCR2B membrane fragments, read-out: IC50 of MCP-1 binding to CCR2B receptor) worked out at 0.11 nM. The Kd with MCP-1 receptor B (CCR2B) (equilibrium binding, CHO-CCR2B membrane fragments) turned out to be 0.12 nM. Besides, the EC50 in the assay with THP-1 cells [2] is about 2 nM. Besides, the “concentration of maximal cell migration (biphasic response)” value with THP-1 cells [1] (hMCP-1 as chemoattractant) was 0.5-1.0 nm.

Consider `O=C(O)c1cc2c(OCCCO)cccc2n1Cc1ccc(Cl)c(Cl)c1` [Compound 15, N-(3,4-Dichlorobenzyl)-4-(3-hydroxypropoxy)indole-2-carboxylic Acid], for which, in the assay on THP-1 cells [3], the IC50 was 3640 nM. Take `O=C(O)COc1cccc2c1cc(C(=O)O)n2Cc1ccc(F)c(F)c1` [Compound 5, N-(3,4-Difluorobenzyl)-4-(carboxymethoxy)indole-2-carboxylic Acid]: the IC50 on MCP-1 receptor B (CCR2B) (competition with 100 pM labelled MCP-1, CHO-CCR2B membranes, 0.01-50 μM, duplicate eight point curves, read-out: IC50 in the hMCP-1 receptor binding assay) was 2300 nM.
